This passage reports Ki and IC50 results from ChEMBL document CHEMBL1125446 (J Med Chem, 1992).

Positions of bridges follow the written chain, without caps; N, C: chain ends. Non-standard residues stand in square brackets, D forms with d. Residues, ends and D or L forms follow the SMILES beside them.

For experiment [1], the target named is T1, Endothelin-1 receptor (Rattus norvegicus, UniProt P26684).
T1 sequence (P26684 whole entry): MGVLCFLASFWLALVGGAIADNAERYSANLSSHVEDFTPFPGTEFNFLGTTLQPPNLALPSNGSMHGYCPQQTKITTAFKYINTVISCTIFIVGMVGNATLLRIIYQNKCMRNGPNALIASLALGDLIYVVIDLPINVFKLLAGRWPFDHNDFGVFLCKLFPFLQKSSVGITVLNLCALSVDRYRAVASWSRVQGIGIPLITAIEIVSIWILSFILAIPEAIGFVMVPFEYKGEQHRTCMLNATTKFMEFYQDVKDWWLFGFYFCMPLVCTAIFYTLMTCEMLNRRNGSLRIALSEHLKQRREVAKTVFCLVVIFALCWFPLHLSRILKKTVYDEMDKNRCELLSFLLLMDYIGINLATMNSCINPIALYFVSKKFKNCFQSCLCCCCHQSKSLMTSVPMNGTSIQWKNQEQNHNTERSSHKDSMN
The experiment is described as follows: Compound was evaluated for the binding affinity to Endothelin A receptor in the rat atrium. The class given is tissue-based, Cardiac atrium.

In experiment [2] the target is T1, Endothelin-1 receptor. The experiment can be described thus: Compound was evaluated for the binding affinity to Endothelin A receptor in the rat aorta. The class given is tissue-based.
For experiment [3], the target named is T2, Endothelin receptor type B (Rattus norvegicus, UniProt P21451).
T2 sequence (P21451 whole entry): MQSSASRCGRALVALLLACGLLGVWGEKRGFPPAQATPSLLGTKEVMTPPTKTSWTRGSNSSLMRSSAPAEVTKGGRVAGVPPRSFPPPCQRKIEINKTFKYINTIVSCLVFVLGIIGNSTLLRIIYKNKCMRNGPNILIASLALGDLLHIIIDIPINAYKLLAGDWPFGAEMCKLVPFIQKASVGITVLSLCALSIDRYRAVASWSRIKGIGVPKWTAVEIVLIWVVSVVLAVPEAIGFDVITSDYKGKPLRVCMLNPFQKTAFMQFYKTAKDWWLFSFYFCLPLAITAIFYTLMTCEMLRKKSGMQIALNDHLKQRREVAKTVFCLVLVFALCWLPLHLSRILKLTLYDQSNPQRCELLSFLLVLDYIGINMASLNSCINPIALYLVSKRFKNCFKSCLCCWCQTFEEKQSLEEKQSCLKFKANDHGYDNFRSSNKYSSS
The experiment is described as follows: Compound was evaluated for the binding affinity to Endothelin B receptor in the rat cerebellum. The class given is tissue-based.

Experiment [4] addresses T2, Endothelin receptor type B. The experiment is described as follows: Compound was evaluated for the binding affinity to Endothelin B receptor in the rat hippocampus. It counts as tissue-based.
The target of experiment [5] is T3, Endothelin receptor, ET-A/ET-B (Homo sapiens, UniProt P24530+P25101).
T3 sequence (P24530 whole entry): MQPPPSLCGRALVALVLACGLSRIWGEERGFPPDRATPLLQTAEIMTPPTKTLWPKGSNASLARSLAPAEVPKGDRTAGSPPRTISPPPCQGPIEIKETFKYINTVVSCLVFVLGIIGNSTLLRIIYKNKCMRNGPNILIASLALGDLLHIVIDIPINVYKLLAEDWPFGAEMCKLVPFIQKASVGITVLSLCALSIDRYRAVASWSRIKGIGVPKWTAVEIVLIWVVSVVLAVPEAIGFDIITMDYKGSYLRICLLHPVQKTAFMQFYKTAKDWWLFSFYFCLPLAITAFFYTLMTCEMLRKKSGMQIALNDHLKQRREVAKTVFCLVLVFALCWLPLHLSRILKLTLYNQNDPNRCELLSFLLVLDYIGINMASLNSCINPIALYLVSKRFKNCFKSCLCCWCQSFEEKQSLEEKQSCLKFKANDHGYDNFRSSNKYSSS
T3 sequence (P25101 whole entry): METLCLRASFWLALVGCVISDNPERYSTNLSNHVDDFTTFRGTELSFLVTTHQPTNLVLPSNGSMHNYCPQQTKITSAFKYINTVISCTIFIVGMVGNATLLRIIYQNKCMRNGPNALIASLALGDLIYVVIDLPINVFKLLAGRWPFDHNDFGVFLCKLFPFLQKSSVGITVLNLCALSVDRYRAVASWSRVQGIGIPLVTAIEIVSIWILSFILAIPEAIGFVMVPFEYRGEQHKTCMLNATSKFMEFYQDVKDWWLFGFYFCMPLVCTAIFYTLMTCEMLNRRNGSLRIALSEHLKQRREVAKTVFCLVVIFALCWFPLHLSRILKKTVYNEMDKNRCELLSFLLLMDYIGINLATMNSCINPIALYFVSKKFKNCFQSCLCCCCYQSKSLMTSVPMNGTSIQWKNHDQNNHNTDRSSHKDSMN
The experiment can be described thus: Compound was evaluated for the Inhibition of the contractile response of Endothelin A receptor in rabbit thoracic aorta. The class given is functional, tissue-based, Oryctolagus cuniculus. The conditions noted are these: target entry is the homologue from another species.

Experiment [6] concerns the target T4, Endothelin-1 receptor (Sus scrofa, UniProt Q29010).
T4 sequence (Q29010 whole entry): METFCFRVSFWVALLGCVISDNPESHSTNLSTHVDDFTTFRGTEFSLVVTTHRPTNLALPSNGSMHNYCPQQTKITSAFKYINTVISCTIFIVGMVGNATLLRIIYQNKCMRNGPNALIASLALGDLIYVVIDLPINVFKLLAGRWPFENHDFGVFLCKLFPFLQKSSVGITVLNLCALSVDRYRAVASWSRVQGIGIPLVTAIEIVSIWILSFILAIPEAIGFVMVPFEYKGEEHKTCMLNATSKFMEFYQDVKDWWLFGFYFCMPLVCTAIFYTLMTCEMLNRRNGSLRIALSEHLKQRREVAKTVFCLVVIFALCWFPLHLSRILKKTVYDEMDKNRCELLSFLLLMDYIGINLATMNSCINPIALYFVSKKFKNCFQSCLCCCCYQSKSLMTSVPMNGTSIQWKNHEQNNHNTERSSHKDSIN
The experiment can be described thus: Compound was evaluated for the binding affinity towards Endothelin A receptor in porcine aortic membranes. The class given is cell membranes.

The species named for another experiment is Rattus norvegicus. The experiment can be described thus: Compound was evaluated for the Inositol phosphate accumulation in rat skin fibroblasts. The class given is functional.
The target of experiment [7] is T4, Endothelin-1 receptor. The experiment can be described thus: Compound was evaluated for the binding affinity to Endothelin A receptor in the porcine aortic smooth muscle.

As usually defined, the Ki is a measure of affinity in units of concentration, obtained from inhibition or displacement. The low end stands for higher affinity, the high end for lower affinity. One may read the IC50 as the concentration that inhibits the measured activity by half. Low values mean greater potency in that assay, high ones weaker potency in that assay.

Take `CC[C@H](C)[C@H](NC(=O)[C@H](CC(=O)O)NC(=O)[C@H](CC(C)C)NC(=O)[C@H](Cc1c[nH]cn1)NC(=O)[C@@H]1CSSC[C@H](N)C(=O)N[C@@H]([C@@H](C)O)C(=O)N[C@H]2CSSC[C@H](NC(=O)[C@H](CCC(=O)O)NC(=O)[C@H](CCCCN)NC(=O)[C@H](CC(=O)O)NC(=O)[C@H](CCCCN)NC(=O)[C@H](Cc3ccc(O)cc3)NC(=O)[C@H]([C@@H](C)O)NC(=O)[C@H](Cc3ccccc3)NC2=O)C(=O)N[C@@H](C(C)C)C(=O)N[C@@H](Cc2ccc(O)cc2)C(=O)N[C@@H](Cc2ccc(O)cc2)C(=O)N1)C(=O)N[C@H](C(=O)N[C@@H](Cc1c[nH]c2ccccc12)C(=O)O)[C@@H](C)CC` [ENDOTHELIN 3]: the Ki at Endothelin-1 receptor [1] came to 1.6 nM; at Endothelin-1 receptor [2] it was 2.5 nM; in experiment [3] it was 0.021 nM; in experiment [4] it was 0.036 nM.

With `CC(C)C[C@H](NC(=O)C1CCCCC1)C(=O)N(C)[C@H](Cc1c[nH]c2ccccc12)C(=O)N[C@H](Cc1ccccn1)C(=O)O.Cl`, the values for the IC50 (in experiment [5]; on Endothelin-1 receptor [6]) were 230000 nM and 2300 nM, respectively.

Compound `CC(C)C[C@H](NC(=O)N1CCCCCC1)C(=O)N(C)[C@H](Cc1c[nH]c2ccccc12)C(=O)N[C@H](Cc1ccccn1)C(=O)N[C@@H](Cc1ccccc1)C(=O)O` came in with an IC50 on Endothelin-1 receptor [6] of 21000 nM.

Consider `CC[C@H](C)[C@H](NC(=O)[C@@H](NC(=O)[C@H](CC(=O)O)NC(=O)[C@H](CCC(N)=O)NC(=O)[C@H](Cc1cnc[nH]1)NC(=O)[C@@H]1CSSC[C@H](N)C(=O)N[C@@H]([C@@H](C)O)C(=O)N[C@H]2CSSC[C@H](NC(=O)[C@H](CCC(=O)O)NC(=O)[C@H](CCC(=O)O)NC(=O)[C@H](CC(=O)O)NC(=O)[C@H]([C@@H](C)O)NC(=O)[C@H](CCSC)NC(=O)[C@H](CC(=O)O)NC(=O)[C@H](CC(N)=O)NC2=O)C(=O)N[C@@H](CC(C)C)C(=O)N[C@@H](CC(N)=O)C(=O)N[C@@H](Cc2ccccc2)C(=O)N1)C(C)C)C(=O)N[C@@H](Cc1c[nH]c2ccccc12)C(=O)O`, for which the inhibitory constant (Ki) at Endothelin-1 receptor [1] was 4200 nM; on Endothelin-1 receptor [2], above 5000 nM; in experiment [3], 0.016 nM; in experiment [4], 0.023 nM.

As to `CC[C@H](C)[C@H](NC(=O)[C@@H](NC(=O)[C@H](CC(=O)O)NC(=O)[C@H](CCC(N)=O)NC(=O)[C@H](Cc1cnc[nH]1)NC(=O)[C@@H]1CSSC[C@H](N)C(=O)N[C@@H](CO)C(=O)N[C@H]2CSSC[C@H](NC(=O)[C@H](CCC(=O)O)NC(=O)[C@H](CCCCN)NC(=O)[C@H](CC(=O)O)NC(=O)[C@H]([C@@H](C)O)NC(=O)[C@H](CCSC)NC(=O)[C@H](CC(=O)O)NC(=O)[C@H](CCCCN)NC2=O)C(=O)N[C@@H](CC(C)C)C(=O)N[C@@H](Cc2ccc(O)cc2)C(=O)N[C@@H](Cc2ccccc2)C(=O)N1)C(C)C)C(=O)N[C@@H](Cc1c[nH]c2ccccc12)C(=O)O` (H-CSCKDMTDKECLYFCHQDVIW-OH; disulfide 1-15, 3-11), the Ki at Endothelin-1 receptor [1] was found to be 0.087 nM; at Endothelin-1 receptor [2] it was 0.24 nM; in experiment [3], 0.013 nM; in experiment [4], 0.012 nM.

Regarding `CC[C@H](C)[C@H](NC(=O)[C@H](CC(=O)O)NC(=O)[C@H](CC(C)C)NC(=O)[C@@H](Cc1c[nH]cn1)NC(C)=O)C(=O)N[C@H](C(=O)N[C@@H](Cc1c[nH]c2ccccc12)C(=O)O)[C@@H](C)CC` (Ac-[dH]LDIIW-OH), half-maximal inhibition in the experiment listed under Rattus norvegicus (IC50) required 1400 nM.

Take Ac-HLDIIW-OH: the IC50 in the experiment listed under Rattus norvegicus is below 50000 nM.

Regarding `CC[C@@H](C)[C@@H](NC(=O)[C@@H](NC(=O)[C@H](CC(=O)O)NC(=O)[C@H](CC(C)C)NC(=O)[C@H](Cc1c[nH]cn1)NC(C)=O)[C@@H](C)CC)C(=O)N[C@@H](Cc1c[nH]c2ccccc12)C(=O)O` (Ac-HLDI[dI]W-OH), in the experiment filed under Rattus norvegicus, the IC50 was below 50000 nM.

In the case of `CNC(=O)[C@H](Cc1ccccn1)NC(=O)[C@@H](Cc1c[nH]c2ccccc12)N(C)C(=O)[C@@H](CC(=O)N1CCCCCC1)CC(C)C`, at Endothelin-1 receptor [6], the IC50 was determined as 7600 nM.

Regarding `CC(C)C[C@H](NC(=O)N1CCCCCC1)C(=O)N(C)[C@H](Cc1c[nH]c2ccccc12)C(=O)N[C@H](Cc1ccccn1)C(=O)O`, the IC50 at Endothelin-1 receptor [6] is 2500 nM.

As to `CC(C)C[C@@H]1NC(=O)[C@@H](C(C)C)NC(=O)[C@@H]2CCCN2C(=O)[C@@H](CC(=O)O)NC(=O)[C@@H](Cc2c[nH]c3ccccc23)NC1=O` [BQ-123] (cyclo(L[dW][dD]P[dV])), the IC50 at Endothelin-1 receptor [7] worked out at 22000 nM. In other words, the double-digit micromolar range.

Regarding H-HLDIIW-OH, the IC50 in the experiment filed under Rattus norvegicus is below 50000 nM.

Regarding `CC(C)C[C@@H]1NC(=O)[C@@H](C(C)C)NC(=O)[C@H](C)NC(=O)[C@@H](CCC(=O)O)NC(=O)[C@@H](Cc2c[nH]c3ccccc23)NC1=O` (single isomer, unassigned), the IC50 at Endothelin-1 receptor [7] was determined as 1400 nM.

For `CC(C)C[C@H](NC(=O)N1CCCCCC1)C(=O)N(C)[C@H](Cc1c[nH]c2ccccc12)C(=O)N[C@H](Cc1ccccn1)C(=O)N(C)CC(=O)O`, on Endothelin-1 receptor [6], the IC50 was determined as 7600 nM.

At Endothelin-1 receptor [6], `CC(C)C[C@H](NC(=O)Cc1ccccc1Cl)C(=O)N(C)[C@H](Cc1c[nH]c2ccccc12)C(=O)N[C@H](CC(C)C)C(=O)O` came in with an IC50 of 32000 nM.
